Reference: patent EP0631503B1, “USE OF VASOACTIVE INTESTINAL PEPTIDE (VIP) TO INDUCE TEMPORARY PARALYSIS OF THE GASTROINTESTINAL TRACT” (KORMAN, Louis Y., priority 1991, dated 2001)
Where two headings read alike, the source gives them in different places.

What was measured:
[1] = Experimental: During the period of observation, vital signs (blood pressure and pulse) and symptoms were continuously recorded. The protocol was such that if the blood pressure dropped by more than 20 mm Hg systolic or diastolic or the pulse increased by more than 30 beats per minute for 2 minutes, intravenous saline was to be administered and the study terminated.
[2] = system: gastroduodenal motility; conditions: reduction in gastroduodenal motility, dose-dependent; cited from earlier work
[3] = in vivo; cited from earlier work
[4] = system: contractions in the antrum; conditions: doses as high as 2 mg; cited from earlier work
[5] = system: antroduodenal activity; conditions: 1 mg i.v. followed by 2 mg IV over 2 hours; cited from earlier work
[6] = dose dependent side effects; cited from earlier work
[7] = system: opossum duodenum; conditions: cited from earlier work
[8] = first patient, initial dose of 5 ng VIP per kg

Compound | effects on blood pressure and pulse ([1]; first patient, higher dose level (20 ng/kg)) | pulse [1, 8] | systolic pressure [1, 8] | blood pressure ([1]; second patient, 5 and 20 ng/kg of bodyweight) | blood pressure or pulse ([1]; second patient, any of the dosages tested) | blood pressure or pulse ([1]; third patient, any dose of VIP administered) | adverse reactions such as nausea or vomiting ([1]; three patients studied) | minimally effective dose [2] [mg] | colonoscopic evaluation [3] | contractions in the antrum [4] | cycle length and time between contractile activity in the duodenum [5] | mean pressure period [5] | dose at which nausea and vomiting can appear [6] [mg] | effect on duodenum [7]
CC[C@H](C)[C@H](NC(=O)[C@H](CO)NC(=O)[C@H](CC(N)=O)NC(=O)[C@H](CC(C)C)NC(=O)[C@H](Cc1ccc(O)cc1)NC(=O)[C@H](CCCCN)NC(=O)[C@H](CCCCN)NC(=O)[C@@H](NC(=O)[C@H](C)NC(=O)[C@H](CCSC)NC(=O)[C@H](CCC(N)=O)NC(=O)[C@H](CCCCN)NC(=O)[C@H](CCCN=C(N)N)NC(=O)[C@H](CC(C)C)NC(=O)[C@H](CCCN=C(N)N)NC(=O)[C@@H](NC(=O)[C@H](Cc1ccc(O)cc1)NC(=O)[C@H](CC(N)=O)NC(=O)[C@H](CC(=O)O)NC(=O)[C@@H](NC(=O)[C@H](Cc1ccccc1)NC(=O)[C@@H](NC(=O)[C@H](C)NC(=O)[C@H](CC(=O)O)NC(=O)[C@H](CO)NC(=O)[C@@H](N)Cc1c[nH]cn1)C(C)C)[C@@H](C)O)[C@@H](C)O)C(C)C)C(=O)N[C@@H](CC(C)C)C(=O)N[C@@H](CC(N)=O)C(N)=O [VIP, vasoactive intestinal peptide] | not seen | increase | slight decrease | no significant effect | no significant change | no significant change | None of the three patients studied experienced any adverse reactions | – | – | – | – | – | – | –
glucagon | – | – | – | – | – | – | – | 0.5 | does not facilitate | does not reduce contractions | significantly increased | decreased | 1 | stimulated relaxation
